Laboratory results reported in patent publication US10000496B2, “Compositions useful for treating disorders related to kit and PDGFR” (BLUEPRINT MEDICINES CORPORATION, priority 2015, dated 2018).

Key:
D816V Kit = molecular target: T1, D816V Kit (Homo sapiens, UniProt P10721, D816V); experiment: Kit D816V assay at Km (Caliper electrophoretic mobility shift); details: D816V Kit 0.5 nM, 15 uM ATP (Km), 1 uM Srctide, 25 C, 90 minutes; read-out: Biochemical Activity D816V IC50
T1 construct: purchased Carna Bioscience 08-156
T1 sequence (P10721 26-976 D816V): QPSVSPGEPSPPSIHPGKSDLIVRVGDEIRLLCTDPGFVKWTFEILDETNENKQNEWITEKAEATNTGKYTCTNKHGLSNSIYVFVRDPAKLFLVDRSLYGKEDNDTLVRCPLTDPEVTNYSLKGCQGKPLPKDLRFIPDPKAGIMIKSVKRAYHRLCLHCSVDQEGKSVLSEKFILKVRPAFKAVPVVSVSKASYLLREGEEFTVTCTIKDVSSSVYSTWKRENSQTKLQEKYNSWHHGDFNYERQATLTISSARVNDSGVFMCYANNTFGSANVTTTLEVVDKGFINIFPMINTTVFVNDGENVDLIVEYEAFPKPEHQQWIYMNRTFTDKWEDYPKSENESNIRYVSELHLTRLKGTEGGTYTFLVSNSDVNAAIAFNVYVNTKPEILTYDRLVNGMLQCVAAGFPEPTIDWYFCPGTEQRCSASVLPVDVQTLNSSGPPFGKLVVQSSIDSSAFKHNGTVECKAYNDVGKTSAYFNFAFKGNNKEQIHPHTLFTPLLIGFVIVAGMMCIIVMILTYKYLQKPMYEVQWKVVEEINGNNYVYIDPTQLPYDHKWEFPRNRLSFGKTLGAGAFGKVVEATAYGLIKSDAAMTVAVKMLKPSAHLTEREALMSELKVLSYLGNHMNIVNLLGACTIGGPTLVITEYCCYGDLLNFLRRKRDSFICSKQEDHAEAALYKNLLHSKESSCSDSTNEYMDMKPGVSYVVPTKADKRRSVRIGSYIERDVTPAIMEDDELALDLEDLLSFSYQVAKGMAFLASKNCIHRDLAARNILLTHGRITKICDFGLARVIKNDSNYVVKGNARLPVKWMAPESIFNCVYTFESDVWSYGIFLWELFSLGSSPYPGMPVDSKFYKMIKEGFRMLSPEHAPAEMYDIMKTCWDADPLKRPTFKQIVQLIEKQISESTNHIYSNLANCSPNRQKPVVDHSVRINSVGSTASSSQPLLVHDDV
Description: In order to assess the activity of chemical compounds against the relevant kinase of interest, the Caliper LifeSciences electrophoretic mobility shift technology platform is used. Fluorescently labeled substrate peptide is incubated in the presence of kinase and ATP so that a […] proportion of the peptide is phosphorylated. At the end of the reaction, the mix of phosphorylated (product) and non-phosphorylated (substrate) peptides are passed through the microfluidic system of the Caliper EZ Reader 2, under an applied potential difference. The presence of the phosphate group on the product peptide provides a difference in mass and charge between those of the substrate peptide, resulting in a separation of the substrate and product pools in the sample. As the pools pass a LEDS within the instrument, these pools are detected and resolved as separate peaks. The ratio between these peaks therefore reflects the activity of the chemical matter at that concentration in that well, under those conditions.
Kit D816V assay at Km: In each well of a 384-well plate, 0.04 ng/ul (0.5 nM) of D816V Kit (Carna Bioscience 08-156) was incubated in a total of 12.5 ul of buffer (100 mM HEPES pH 7.5, 0.015% Brij 35, 10 mM MgCl2, 1 mM DTT) with 1 uM Srctide (5-FAM-GEEPLYWSFPAKKK-NH2) and 15 uM ATP at 25 C for 90 minutes in the presence or absence of a dosed concentration series of compound (1% DMSO final concentration). The reaction was stopped by the addition of 70 ul of Stop buffer (100 mM HEPES pH 7.5, 0.015% Brij 35, 35 mM EDTA and 0.2% of Coating Reagent 3 (Caliper Lifesciences)). The plate was then read on a Caliper EZReader 2 (protocol settings:—1.9 psi, upstream voltage—700, downstream voltage—3000, post sample sip 35s). Data was normalized to 0% and 100% inhibition controls and the IC50 or EC50 calculated using a 4-parameter fit using GraphPad Prism.

[1] = molecular target: T2, Kit D816V in HMC1.2 cells (Homo sapiens, UniProt P10721, D816V/V560G); experiment: HMC1.2 autophosphorylation assay (Kit autophosphorylation at tyrosine 719, AlphaLISA); format: cell-based; details: HMC1.2 mast cell leukemia cells (Kit V560G and D816V), phospho-Y719 c-Kit, 90 minutes; read-out: Cellular Activity IC50
T2 construct: endogenous in cells; host or cells: HMC1.2
T2 sequence (P10721 26-976 V560G/D816V): as the sequence (P10721 26-976 D816V) above, with V535G counted along it
Description: 10,000 HMC1.2 cells were incubated in 22 ul culture media (phenol-red free IMDM, no serum) in each well of a 384-well plate and serum starved overnight in a tissue culture incubator (5% CO2, 37° C.). A 10-point dose concentration series of compound (25 uM-95.4 pM) were then added to the cells in a volume of 3.1 ul to each well (0.25% DMSO final concentration). After 90 minutes, 6 ul of 5× AlphaLISA Lysis Buffer (Perkin Elmer) supplemented with a protease and phosphatase inhibitor cocktail (Cell Signaling Technologies) was added to each well and shaken at 450 rpm for 15 minutes at 4° C. 10 ul of phospho-Y719 c-Kit and total c-Kit antibodies (15 nM final concentration, Cell Signaling Technologies) and 50 ug/ml AlphaLISA rabbit acceptor beads (Perkin Elmer) were added to each well and shaken at 300 rpm at room temperature for 2 hours. 10 ul of 100 ug/ml streptavidin donor beads (Perkin Elmer) were added to each well, blocked from light with aluminum adhesive and shaken at 300 rpm at room temperature for 2 hours. Fluorescence signal was obtained on Envision (Perkin Elmer) by AlphaScreen 384 well HTS protocol. Data was normalized to 0% and 100% inhibition controls and the IC50 was calculated using Four Parameter Logistic IC50 curve fitting.
This cell line contains Kit mutated at positions V560G and D816V resulting in constitutive activation of the kinase. The following compounds were tested in an assay to measure direct inhibition of Kit D816V kinase activity by assaying Kit autophosphorylation at tyrosine 719 on the Kit protein.

IC50 (D816V Kit) [nM] | IC50 [1] [nM] | Structure (SMILES)
10 to 100 | 100 to 1000 | Cn1cc(-c2cc3c(-c4ccc(NS(=O)(=O)c5cccc(Cl)c5)cc4)ncnn3c2)cn1 [Compound 37]
10 to 100 | 100 to 1000 | C[C@H](C(=O)Nc1ccc(-c2ncnn3cc(-c4cnn(C)c4)cc23)cc1)c1ccc(Cl)cc1 [Compound 30]
10 to 100 | 100 to 1000 | CO[C@H](C(=O)Nc1ccc(-c2ncnn3cc(-c4cnn(C)c4)cc23)cc1)c1ccc(Cl)cc1 [Compound 53]
1.01 to 10 | 10 to 100 | Cc1ccc(CC(=O)Nc2ccc(-c3ncnn4cc(-c5cnn(C)c5)cc34)cc2)cc1 [Compound 8]
< 1 | 10 to 100 | Cn1cc(-c2cc3c(-c4ccc(NS(=O)(=O)c5ccc(Cl)cc5)cc4)ncnn3c2)cn1 [Compound 36]
< 1 | 10 to 100 | CCC(=O)N1CC=C(c2cc3c(-c4ccc(NS(=O)(=O)c5ccc(Cl)cc5)cc4)ncnn3c2)CC1 [Compound 63]
1.01 to 10 | 10 to 100 | Cn1cc(-c2cc3c(-c4ccc(NC(=O)[C@@H](O)c5ccc(Cl)cc5)cc4)ncnn3c2)cn1 [Compound 34, 2-(4-chlorophenyl)-2-hydroxy-N-(4-(6-(1-methyl-1H-pyrazol-4-yl)pyrrolo[1,2-f][1,2,4]triazin-4-yl)phenyl)acetamide]
10 to 100 | 100 to 1000 | Cn1cc(-c2cc3c(-c4ccc(NC(=O)NCc5ccccc5)cc4)ncnn3c2)cn1 [Compound 9, 1-benzyl-3-(4-(6-(1-methyl-1H-pyrazol-4-yl)pyrrolo[1,2-f][1,2,4]triazin-4-yl)phenyl)urea]
1.01 to 10 | < 10 | CC(C(=O)Nc1ccc(-c2ncnn3cc(-c4cnn(C)c4)cc23)cc1)c1ccc(Cl)cc1 (centres unmarked) [Compound 29]
1.01 to 10 | 1000 to 10000 | Cn1cc(-c2cc3c(-c4ccc(NS(C)(=O)=O)cc4)ncnn3c2)cn1 [Compound 1]
> 100 |  | Cn1cc(-c2cc3c(-c4ccc(NC(=O)c5ccc(Cl)cc5)cc4)ncnn3c2)cn1 [Compound 12]
1.01 to 10 | 100 to 1000 | Cn1cc(-c2cc3c(-c4ccc(NS(=O)(=O)c5ccc(Cl)cc5)cc4F)ncnn3c2)cn1 [Compound 56]
10 to 100 | 1000 to 10000 | CC(C)(C)Oc1ccc(-c2cc3c(-c4ccc(NC(=O)Cc5ccc(Cl)cc5)cc4)ncnn3c2)cc1 [Compound 61]
10 to 100 | 10 to 100 | CC(C)C(C(=O)Nc1ccc(-c2ncnn3cc(-c4cnn(C)c4)cc23)cc1)c1ccc(Cl)cc1 (centres unmarked) [Compound 58]
10 to 100 | 1000 to 10000 | O=C(Cc1ccc(Cl)cc1)Nc1ccc(-c2ncnn3cc(-c4ccc(F)cc4)cc23)cc1 [Compound 27]
1.01 to 10 | 100 to 1000 | Cn1cc(-c2cc3c(-c4ccc(NS(=O)(=O)c5ccc(F)cc5)cc4)ncnn3c2)cn1 [Compound 24]
1.01 to 10 | 10 to 100 | Cn1cc(-c2cc3c(-c4ccc(NC(=O)Cc5ccccc5)cc4)ncnn3c2)cn1 [Compound 3]
< 1 |  | Cn1cc(-c2cc3c(-c4ccc(NC(=O)C(O)c5ccccc5)cc4)ncnn3c2)cn1 (centres unmarked) [Compound 10]
1.01 to 10 | 100 to 1000 | Cn1cc(-c2cc3c(-c4ccc(NC(=O)Cc5ccccc5Cl)cc4)ncnn3c2)cn1 [Compound 19]
1.01 to 10 | 1000 to 10000 | Cn1cc(-c2cc3c(-c4ccc(NS(=O)(=O)c5ccc(C#N)cc5)cc4)ncnn3c2)cn1 [Compound 26]
10 to 100 |  | Cn1cc(-c2cc3c(-c4ccc(NC(=O)c5ccc(C#N)cc5)cc4)ncnn3c2)cn1 [Compound 7]
1.01 to 10 |  | COC(C(=O)Nc1ccc(-c2ncnn3cc(-c4cnn(C)c4)cc23)cc1)c1ccccc1 (centres unmarked) [Compound 15]
> 100 |  | Cn1cc(-c2cc3c(-c4ccc(NC(=O)Nc5ccc(Cl)cc5)cc4)ncnn3c2)cn1 [Compound 21]
